Experimental data taken from patent publication US6211244A, “Calcium receptor-active compounds” (priority 1995, dated 2001).
Counter-ions that a name gives are not always drawn.

What was measured:
[1] = target: T1, human calcium receptor (Homo sapiens, UniProt P41180, R990G); test: increases in [Ca^2+ ]i in HEK-293 cells expressing the human calcium receptor (fura-2 loaded HEK 293/pHuPCaR4.0 cells), % activity; assay type: cell-based; details: for activity at […]: HEK293
T1 construct: expressed in transfected cells; host or cells: HEK 293
T1 sequence (P41180 20-1078 R990G): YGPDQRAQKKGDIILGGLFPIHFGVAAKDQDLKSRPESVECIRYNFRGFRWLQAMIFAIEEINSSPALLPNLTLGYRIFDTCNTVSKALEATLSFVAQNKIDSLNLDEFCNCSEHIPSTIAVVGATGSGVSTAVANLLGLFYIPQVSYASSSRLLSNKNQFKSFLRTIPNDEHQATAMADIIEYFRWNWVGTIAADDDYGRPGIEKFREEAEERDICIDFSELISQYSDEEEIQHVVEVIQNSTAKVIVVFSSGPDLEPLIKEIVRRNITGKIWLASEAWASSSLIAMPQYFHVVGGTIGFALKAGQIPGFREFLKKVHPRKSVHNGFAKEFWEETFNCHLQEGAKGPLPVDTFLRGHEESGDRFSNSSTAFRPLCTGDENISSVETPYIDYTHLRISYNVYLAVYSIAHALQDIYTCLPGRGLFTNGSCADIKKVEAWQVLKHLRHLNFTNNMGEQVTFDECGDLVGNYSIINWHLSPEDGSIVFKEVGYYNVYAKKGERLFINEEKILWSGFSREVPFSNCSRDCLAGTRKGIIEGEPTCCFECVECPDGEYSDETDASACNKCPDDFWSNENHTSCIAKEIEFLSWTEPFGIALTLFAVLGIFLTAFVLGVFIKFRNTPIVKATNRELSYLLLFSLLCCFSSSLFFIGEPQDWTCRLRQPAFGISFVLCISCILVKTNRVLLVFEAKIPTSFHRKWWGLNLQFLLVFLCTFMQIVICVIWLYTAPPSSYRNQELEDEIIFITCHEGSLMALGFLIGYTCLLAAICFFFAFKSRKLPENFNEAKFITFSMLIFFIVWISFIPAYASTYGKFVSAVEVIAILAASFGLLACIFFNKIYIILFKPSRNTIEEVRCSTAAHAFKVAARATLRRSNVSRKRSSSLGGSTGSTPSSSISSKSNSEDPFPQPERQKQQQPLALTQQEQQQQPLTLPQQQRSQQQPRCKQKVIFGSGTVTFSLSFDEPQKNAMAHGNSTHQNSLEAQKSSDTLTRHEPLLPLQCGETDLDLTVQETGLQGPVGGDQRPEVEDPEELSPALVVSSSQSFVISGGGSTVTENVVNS

[2] = system: Parathyroid Cell Calcium Receptor; test: EC50 in parathyroid cells or HEK 293/pHuPCaR4.0 cells loaded with fura-2; assay type: cell-based, calves and humans; details: parathyroid cells or HEK 293/pHuPCaR4.0, fura-2; cell type not given per value
Description: This section describes procedures used to obtain parathyroid cells from calves and humans, and to use the parathyroid cells to measure calcium receptor activity.
Human parathyroid glands, were obtained from patients undergoing surgical removal of parathyroid tissue for primary or uremic hyperparathyroidism (uremic HPT), and were treated similarly to bovine tissue.
Glands were trimmed of excess fat and connective tissue and then minced with fine scissors into cubes approximately 2-3 mm on a side. Dissociated parathyroid cells were prepared by collagenase digestion and then purified by centrifugation in Percoll buffer.
Primary culture also has the advantage that cells can be labeled with isotopes to near isotopic equilibrium, as is necessary for studies involving measurements of inositol phosphate metabolism.
ITS+ is a premixed solution containing insulin, transferrin, selenium, and bovine serum albumin (BSA)-linolenic acid (Collaborative Research, Bedford, Mass.). The cells were then transferred to plastic flasks (75 or 150 cm^2; Falcon) and incubated overnight at 37° C. in a humid atmosphere of 5% CO2. No serum is added to these overnight cultures, since its presence allows the cells to attach to the plastic, undergo proliferation, and dedifferentiate.
The cells were then pelleted, resuspended in the same buffer, but lacking the ester, and incubated a further 15 minutes at 37° C. The cells were subsequently washed twice with PCB containing 0.5 mM CaCl2 and 0.5% BSA and maintained at room temperature (about 20° C.). Immediately before use, the cells were diluted five-fold with prewarmed 0.5 mM CaCl2 -PCB to obtain a final BSA concentration of 0.1%. The concentration of cells in the cuvette used for fluorescence recording was 1-2×10^6 /ml.
The fluorescence of indicator-loaded cells was measured at 37° C. in a spectrofluorimeter (Biomedical Instrumentation Group, University of Pennsylvania, Philadelphia, Pa.) equipped with a thermostated cuvette holder and magnetic stirrer using excitation and emission wavelengths of 340 and 510 nm, respectively. […] To correct the calibration for dye leakage, cells were placed in the cuvette and stirred at 37° C. for 2-3 minutes. The cell suspension was then removed, the cells pelleted, and the supernatant returned to a clean cuvette. […] This estimate was subtracted from the apparent Fmin.
HEK 293 cells transfected with pHuPCaR4.0 were loaded with fura-2 by incubating the cells in Dulbecco's modified Eagle's media buffered with 20 mM HEPES containing about 5 μM […] for one hour at room temperature. Cell were then rinsed with Hank's balanced salt solution buffered with 20 mM HEPES containing 1 mM CaCl2 and 1 mM MgCl2. Compounds to be tested were then added to the cells and fluorescence was measured (excitation and emission wavelengths of 340 and 510 nm, respectively).

SMILES	% activity ([1]; 33 ng/mL) [%]	% activity ([1]; 330 ng/mL) [%]	EC50 [2] [µM]	% activity ([1]; 3300 ng/mL) [%]	activity at […] ([1]; 33 ng/mL) [%]	activity at […] ([1]; 330 ng/mL) [%]
CC(N[C@H](C)c1ccccc1)c1ccc2ccccc2c1 (some centres unmarked) [Compound 4H, N-[1-(2-naphthyl)ethyl]-1-phenylethylamine]	37	77	≥ 3			
COc1cccc([C@@H](C)NCCCc2cccc(F)c2)c1 [Compound 4N]	65	100	0.8			
C[C@@H](NCc1ccc2ccccc2c1)c1cccc2ccccc12 [Compound 9C]	82	104	0.6			
CC(C)C(N[C@H](C)c1cccc2ccccc12)c1ccc2ccccc2c1 (some centres unmarked) [Compound 10F]	84	96	0.89			
C[C@@H](NCCCc1ccccc1Cl)c1cccc2ccccc12 [Compound 12Z, N-3-(2-chlorophenyl)-1-propyl-(R)-1-(1-naphthyl) ethylamine hydrochloride]			0.11			
CCCOc1ccc(CN[C@H](C)c2cccc3ccccc23)cc1 [Compound 13Q]	46	95	~0.8			
C[C@@H](NCc1ccc(C(F)(F)F)cc1)c1cccc2ccccc12 [Compound 13S]	87	102	< 0.13			
C[C@@H](NCc1ccc2c(c1)OCCO2)c1cccc2ccccc12 [Compound 13X]	65	102	< 0.75			
COc1ccc([C@H](C)N[C@H](C)c2cccc3ccccc23)cc1 [Compound 14V]			1.7			
COc1cccc(C(C)NC(C)c2cccc3ccccc23)c1 (centres unmarked) [Compound 14Y]	73	109	0.38			
C[C@@H](NCc1ccc(C(C)(C)C)cc1)c1cccc2ccccc12 [Compound 15G]	80	113	~0.5			
COc1ccc(CN[C@H](C)c2cccc3ccccc23)cc1C [Compound 16Q]	88	110	0.04			
COc1ccc(CN[C@H](C)c2cccc3ccccc23)cc1F [Compound 16T]	88	97	0.04			
Cc1ccc(CN[C@H](C)c2cccc3ccccc23)cc1C [Compound 16V]	102	114	< 0.13			
CSc1ccc(CN[C@H](C)c2cccc3ccccc23)cc1 [Compound 16X]	96	111	0.1			
COc1ccc([C@@H](C)N[C@H](C)c2cccc3ccccc23)cc1C.Cl [Compound 17P, (R)-N-(1-(4-Methoxy-3-methylphenyl)ethyl)-(R)-1-(1-naphthyl)ethylamine hydrochloride]	86	101	0.04			
COc1cccc([C@@H](C)NC2CCN(Cc3ccccc3)CC2)c1 [Compound 20F]			< 1			
CCC(CCc1ccccc1)NC(C)c1cccc(OC)c1 (centres unmarked) [Compound 20S]			4.2			

SMILES	% activity ([1]; 33 ng/mL) [%]	% activity ([1]; 330 ng/mL) [%]	EC50 [2] [µM]	% activity ([1]; 3300 ng/mL) [%]	activity at […] ([1]; 33 ng/mL) [%]	activity at […] ([1]; 330 ng/mL) [%]
C[C@H](CCc1cccc(C(F)(F)F)c1)N[C@@H](C)c1cccc2ccccc12 [Compound 25C, (S,R)-N-[4-(3-trifluoromethylphenyl)-2-butyl]-1-(1-naphthyl)ethylamine]			> 2			
C[C@H](CCc1cccc(C(F)(F)F)c1)N[C@H](C)c1cccc2ccccc12 [Compound 25D, (R,R)-N-[4-(3-trifluoromethylphenyl)-2-butyl]-1-(1-naphthyl)ethylamine]			0.019			
COc1cccc([C@@H](C)NCC=Cc2ccccc2)c1 [Compound 25E, (R)-N-(3-phenylprop-2-enyl)-1-(3-methoxyphenyl)ethylamine]	122	129		132		
COc1cccc([C@@H](C)NCc2cccc3ccccc23)c1 [Compound 25F]					76	85
COc1cccc([C@@H](C)NCC(C)=Cc2ccccc2)c1 [Compound 25G, (R)-N-(2-methyl-3-phenylprop-2-enyl)-1-(3-methoxyphenyl)ethylamine]	99	115		130		
COc1cccc([C@@H](C)NC[C@H](C)C=Cc2ccccc2)c1 [Compound 25H, (R,R)-N-(2-methyl-4-phenybut-3-enyl)-1-(3-methoxyphenyl)ethylamine]	89	107		115		
COc1cccc([C@H](C)NC[C@H](C)C=Cc2ccccc2)c1 [Compound 25I, (S,R)-N-(2-methyl-4-phenybut-3-enyl)-1-(3-methoxyphenyl)ethylamine]	114	113		119		
COc1cccc([C@@H](C)NCc2ccc3c(c2)OCO3)c1 [Compound 25J]	105	123		119		
COc1cccc([C@@H](C)NCc2ccc(OC)c(OC)c2)c1 [Compound 25K]	86	107		124		
C[C@@H](NCc1cccc2ccccc12)c1cccc2ccccc12 [Compound 25L]	85	97		97		
COc1cccc([C@@H](C)NCC(C)c2ccccc2)c1 (some centres unmarked) [Compound 25M]	79	100		118		
COc1cccc([C@@H](C)NCC(C)c2ccccc2)c1 (some centres unmarked) [Compound 25N]	46	73		94		
COc1cccc([C@@H](C)NCc2ccc3c(c2)OCCO3)c1 [Compound 25O]	96	115		126		
COc1cccc([C@@H](C)NC2Cc3ccccc3C2)c1 [Compound 25P]	75	81		90		
COc1cccc([C@@H](C)NCCc2ccccc2)c1 [Compound 25Q]	77	95		116		
COc1ccc([C@H](C)N[C@H](C)c2cccc3ccccc23)cc1C [Compound 25U]	95	107		107		
COc1ccc([C@H](C)N[C@@H](C)c2cccc3ccccc23)cc1C [Compound 25V]	43	59		89		
COc1ccc([C@@H](C)N[C@@H](C)c2cccc3ccccc23)cc1C [Compound 25W]	42	69		95		
